The supplement of paper PMC10307832

What was measured:
Assay in all cases: relative viability (nuclei count vs DMSO), 5 days (fraction); higher = more cells survive
[1] = compound: OCc1c[nH]c2ccccc12 [Indole-3-carbinol] + CC1(C)CCC(c2ccc(Cl)cc2)=C(CN2CCN(c3ccc(C(=O)NS(=O)(=O)c4ccc(N[C@H](CCN5CCOCC5)CSc5ccccc5)c(S(=O)(=O)C(F)(F)F)c4)cc3)CC2)C1 [Navitoclax] (partner 0.5 µM)
Procedure, shortened: (§1)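 Relative viability equals treated-well nuclei counts divided by vehicle-well nuclei counts. Counts came from 4× images of lung cancer cell lines grown in 1536-well plates for 5 days after pin-tool dosing on the day after seeding. Dosing used one drug alone or a fixed anchor-drug dose plus five library-drug doses (not always all listed) in √10 steps, and values are medians of duplicate plates.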

[2] = compound: OCc1c[nH]c2ccccc12 [Indole-3-carbinol] + CCNC(=O)c1noc(-c2cc(C(C)C)c(O)cc2O)c1-c1ccc(CN2CCOCC2)cc1 [Luminespib] (partner 0.01 µM)
Procedure, shortened: as §1

[3] = compound: OCc1c[nH]c2ccccc12 [Indole-3-carbinol] + CC(=O)Nc1cccc(-n2c(=O)n(C3CC3)c(=O)c3c(Nc4ccc(I)cc4F)n(C)c(=O)c(C)c32)c1 [Trametinib] (partner 0.02 µM)
Procedure, shortened: as §1

[4] = compound: OCc1c[nH]c2ccccc12 [Indole-3-carbinol] + NC(=O)Nc1cc(-c2cccc(F)c2)sc1C(=O)N[C@H]1CCCNC1 [AZD7762] (partner 0.2 µM)
Procedure, shortened: as §1

[5] = compound: OCc1c[nH]c2ccccc12 [Indole-3-carbinol] + Nc1ncn([C@H]2C[C@H](O)[C@@H](CO)O2)c(=O)n1 [Decitabine] (partner 2 µM)
Procedure, shortened: as §1

Cell Line	relative viability ([1]; first compound 0.253 µM)	relative viability ([1]; first compound 0.8 µM)	relative viability ([1]; first compound 2.53 µM)	relative viability ([1]; first compound 8 µM)	relative viability ([2]; first compound 0.253 µM)	relative viability ([2]; first compound 0.8 µM)	relative viability ([2]; first compound 2.53 µM)	relative viability ([2]; first compound 8 µM)	relative viability ([3]; first compound 0.253 µM)	relative viability ([3]; first compound 0.8 µM)	relative viability ([3]; first compound 2.53 µM)	relative viability ([3]; first compound 8 µM)	relative viability ([4]; first compound 0.253 µM)	relative viability ([4]; first compound 0.8 µM)	relative viability ([4]; first compound 2.53 µM)	relative viability ([4]; first compound 8 µM)	relative viability ([5]; first compound 0.253 µM)	relative viability ([5]; first compound 0.8 µM)	relative viability ([5]; first compound 2.53 µM)	relative viability ([5]; first compound 8 µM)
201T	1.22	1.15	1.18	1.2	1.03	1.01	1.07	1	0.704	0.705	0.697	0.692	0.623	0.591	0.614	0.725	0.819	0.834	0.885	0.844
A549	1.16	1.29	1.22	1.17													0.271	0.287	0.272	0.235
A-427	0.963	1.05	0.97	0.947	0.932	0.96	0.908	0.895	0.713	0.717	0.76	0.685	0.72	0.763	0.908	0.778	0.53	0.542	0.607	0.547
ABC-1						0.696	0.803	0.509					0.72	0.974	0.618	0.833	0.993	1.14	1.12	1.24
BEN	0.0839	0.0691	0.0796	0.048	0.346	0.188	0.377	0.379	0.995	1.14	1.03	0.936	0.635	0.706	0.732	0.784	0.689	0.784	0.726	0.749
CAL-12T	1.21	1.48	1.16	0.993	0.393	0.533	0.592	0.767	0.361	0.411	0.31	0.295	0.608	0.631	0.733	0.536				
COR-L23	1.17	1.07	0.976	0.797	0.74	0.754	0.712	0.512	0.619	0.557	0.703	0.549					0.428	0.465	0.414	0.385
COR-L 105	0.718	0.701	0.821	0.631	0.758	0.723	0.651	0.656	0.407	0.405	0.473	0.428					0.607	0.598	0.631	0.626
ChaGo-K-1	0.805	0.962	0.913	0.966	0.649	0.658	0.576	0.557	0.91	0.905	0.832	0.885	1	0.853	0.932	0.869	0.523	0.55	0.525	0.519
EKVX	1.13	1.01	0.983	0.873	0.972	0.884	0.908	0.848	0.298	0.344	0.297	0.313	0.759	0.752	0.744	0.633	0.326	0.353	0.326	0.381
EMC-BAC-2	1.16	1.21	1.11	1.04	1.2	1.23	1.09	1.06	0.789	0.918	0.879	0.849	1.15	1.17	1.05	1.11	0.953	0.96	0.957	0.889
EPLC-272H	1.32	1.08	1.26	0.988	0.267	0.23	0.377	0.345	0.293	0.268	0.296	0.275	0.26	0.236	0.18	0.214	0.364	0.359	0.388	0.356
H3255	0.643	0.523	0.54	0.467	0.875	0.9	0.847	0.857	0.515	0.643	0.57	0.589	0.892	0.755	0.911	0.747	0.658	0.561	0.517	0.68
HARA	1.18	1.17	1.14	1.16	0.616	0.576	0.675	0.55	0.673	0.834	0.818	0.652	0.355	0.239	0.313	0.463	0.566	0.549	0.637	0.47
HCC-15	0.692	0.722	0.66	0.71	0.529	0.247	0.266	0.225	0.414	0.458	0.391	0.395	1.31	1.14	1.38	1.26	0.66	0.682	0.64	0.664
HCC-44	1.05	0.986	0.941	0.859	1.04	0.812	1.1	0.942	1.05	1.13	1.09	1.04	1.03	1.03	1	0.967	0.983	0.986	0.971	0.91
HCC-78	0.925	0.553	0.776	0.719					0.717	0.644	0.793	0.77	0.623	0.608	0.643	0.696	0.681	0.715	0.676	0.741
HCC-366	1.03	1.02	0.986	0.948					0.358	0.322	0.422	0.304	0.265	0.242	0.355	0.258	0.384	0.335	0.369	0.335
